Results on 1 compound are retold here after patent US4971970A, “Benzoheterocyclic compounds” (Otsuka Pharmaceutical Company, Limited, priority 1988, dated 1990).

The test system of the experiment is Escherichia coli No. 29 strain. The experiment can be described thus: Antimicrobial activity in vivo (ED50 in mice infected with Escherichia coli No. 29). Particulars: mice (10 per group), i.p. infection with E. coli No. 29 (10^5 -10^6 cells/mouse) in mucin, compound oral one hour after infection, observed one week, Probit method, read-out: 50 % effective dose (ED50). As for the experimental part: Experiment (Antimicrobial activity in vivo)
Escherichia coli No. 29 strain was cultured in a nutrient medium at 37° C., and the culture broth was diluted with the same medium and thereto was added an equivolume of 6 % mucin solution to prepare a cell solution.
The cell solution thus prepared (0.5 ml) (e. coli cells; 10^5 -10^6 cells/mouse) was intraperitoneally administered to mice (10 mice per group). […] From the number of dead mice and the survival mice, the 50 % effective dose (ED50) of the test compound was calculated by Probit method.

Turning to `Cc1c(F)c(N2CCNC(C)C2)cc2c1c(=O)c(C=O)cn2C1CC1` (stereo not shown) [1-Cyclopropyl-6-fluoro-7-(3-methyl-1-piperazinyl)-5-methyl-3-formyl-1,4-dihydro-4-oxoquinoline], the ED50 came to 0.331 mg/kg.

What is called ED50 is the dose that gives a 50% effect, or the effect in half of the subjects.
